Reference: PubChem BioAssay AID328 (DTP/NCI, 2004)
“And” between values parts separate entries of the source, which are not always exact repeats. Equal values may be shown once. Inconclusive results and toxic doses are left out.

Test system: BDF1 mice, P388 leukemia ip, median survival T/C
Assay: NCI In Vivo Anticancer Drug Screen. Data for tumor model P388 Leukemia (intraperitoneal) in B6D2F1 (BDF1) mice
Details: endpoint: median survival time, higher = longer survival
How it was run: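 Reported as T/C, where T is the survival measurement in dosed animals and C the same measurement in vehicle controls.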

[1] = dose: 100.0 mg/kg/injection, schedule: Q04DX003 (ip), vehicle: saline
[2] = dose: 200.0 mg/kg/injection, schedule: Q04DX003 (ip), vehicle: saline
[3] = dose: 400.0 mg/kg/injection, schedule: Q04DX003 (ip), vehicle: saline
[4] = dose: 100.0 mg/kg/injection, schedule: Q04DX003 (ip), vehicle: Klucel (hydroxypropylcellulose) (HPC)
[5] = dose: 200.0 mg/kg/injection, schedule: Q04DX003 (ip), vehicle: Klucel (hydroxypropylcellulose) (HPC)
[6] = dose: 400.0 mg/kg/injection, schedule: Q04DX003 (ip), vehicle: Klucel (hydroxypropylcellulose) (HPC)
[7] = dose: 5.0 mg/kg/injection, schedule: Q01DX009 (ip), vehicle: saline with Tween-80
[8] = dose: 25.0 mg/kg/injection, schedule: Q01DX009 (ip), vehicle: saline with Tween-80
[9] = dose: 50.0 mg/kg/injection, schedule: Q01DX009 (ip), vehicle: saline with Tween-80
[10] = dose: 100.0 mg/kg/injection, schedule: Q01DX009 (ip), vehicle: saline with Tween-80
[11] = dose: 200.0 mg/kg/injection, schedule: Q04DX003 (ip), vehicle: saline with Tween-80
[12] = dose: 100.0 mg/kg/injection, schedule: Q04DX003 (ip), vehicle: saline with Tween-80
[13] = dose: 200.0 mg/kg/injection, schedule: Q01DX009 (ip), vehicle: saline with Tween-80
[14] = dose: 400.0 mg/kg/injection, schedule: Q01DX009 (ip), vehicle: saline with Tween-80
[15] = dose: 400.0 mg/kg/injection, schedule: Q04DX003 (ip), vehicle: saline with Tween-80

O=Cc1c[nH]c2nccnc12
T/C (dose: 25.0 mg/kg/injection, schedule: Q01DX009 (ip), vehicle: saline): 98 % of control | T/C (dose: 50.0 mg/kg/injection, schedule: Q01DX009 (ip), vehicle: saline): 101 % of control | T/C (dose: 100.0 mg/kg/injection, schedule: Q01DX009 (ip), vehicle: saline): 99 % of control and 115 % of control | T/C [1]: 100 % of control | T/C (dose: 200.0 mg/kg/injection, schedule: Q01DX009 (ip), vehicle: saline): 107 % of control and 108 % of control | T/C [2]: 101 % of control | T/C [3]: 103 % of control

Cc1cc2c(cc1C)NC(=O)CC(=O)N2
T/C [4]: 100 % of control | T/C [5]: 86 % of control | T/C [6]: 86 % of control

COc1cc(C=Nc2cccc(C(F)(F)F)c2)ccc1O
T/C [4]: 95 % of control | T/C [5]: 100 % of control

C[N+](C)(CC(=O)Nc1ccc(Cl)c(Cl)c1)CC(=O)c1ccc(Cl)c(Cl)c1
T/C (dose: 400.0 mg/kg/injection, schedule: Q04DX003 (ip), vehicle: saline sonified): 87 % of control

CCc1ccccc1OS(=O)(=O)c1ccccc1[N+](=O)[O-]
T/C [4]: 100 % of control | T/C [5]: 100 % of control | T/C [6]: 100 % of control

COc1cccnc1/C=N/NC(N)=S
T/C (dose: 1.5 mg/kg/injection, schedule: Q01DX009 (ip), vehicle: saline with Tween-80): 115 % of control | T/C (dose: 3.0 mg/kg/injection, schedule: Q01DX009 (ip), vehicle: saline with Tween-80): 118 % of control | T/C [7]: 157 % of control | T/C (dose: 8.0 mg/kg/injection, schedule: Q01DX009 (ip), vehicle: saline with Tween-80): 158 % of control | T/C (dose: 12.0 mg/kg/injection, schedule: Q01DX009 (ip), vehicle: saline with Tween-80): 158 % of control and 175 % of control

NC(=S)c1c(N)n(C2OC(CO)C(O)C2O)c2ncnc(N)c12 (stereo unspecified)
T/C (dose: 12.5 mg/kg/injection, schedule: Q04DX003 (ip), vehicle: saline): 114 % of control | T/C (dose: 25.0 mg/kg/injection, schedule: Q04DX003 (ip), vehicle: saline): 112 % of control

CC1(C)N=C(N)N=C(N)N1c1ccc(CCCCc2ccc(S(=O)(=O)F)cc2Cl)c(Cl)c1
T/C [7]: 157 % of control | T/C (dose: 7.5 mg/kg/injection, schedule: Q01DX009 (ip), vehicle: saline with Tween-80): 150 % of control and 166 % of control | T/C (dose: 8.0 mg/kg/injection, schedule: Q04DX003 (ip), vehicle: saline with Tween-80): 168 % of control | T/C (dose: 11.5 mg/kg/injection, schedule: Q01DX009 (ip), vehicle: saline with Tween-80): 200 % of control | T/C (dose: 12.0 mg/kg/injection, schedule: Q04DX003 (ip), vehicle: saline with Tween-80): 186 % of control | T/C (dose: 17.0 mg/kg/injection, schedule: Q01DX009 (ip), vehicle: saline with Tween-80): 188 % of control and 191 % of control | T/C (dose: 18.0 mg/kg/injection, schedule: Q04DX003 (ip), vehicle: saline with Tween-80): 200 % of control | T/C [8]: 208 % of control and 220 % of control | T/C (dose: 26.0 mg/kg/injection, schedule: Q04DX003 (ip), vehicle: saline with Tween-80): 200 % of control | T/C (dose: 26.5 mg/kg/injection, schedule: Q04DX003 (ip), vehicle: saline with Tween-80): 195 % of control | T/C (dose: 37.0 mg/kg/injection, schedule: Q01DX009 (ip), vehicle: saline with Tween-80): 176 % of control | T/C (dose: 40.0 mg/kg/injection, schedule: Q04DX003 (ip), vehicle: saline with Tween-80): 209 % of control | T/C [9]: 241 % of control | T/C (dose: 60.0 mg/kg/injection, schedule: Q04DX003 (ip), vehicle: saline with Tween-80): 176 % of control | T/C (dose: 88.0 mg/kg/injection, schedule: Q04DX003 (ip), vehicle: saline with Tween-80): 209 % of control | T/C (dose: 90.0 mg/kg/injection, schedule: Q04DX003 (ip), vehicle: saline with Tween-80): 180 % of control | T/C [10]: 116 % of control | T/C (dose: 133.0 mg/kg/injection, schedule: Q04DX003 (ip), vehicle: saline with Tween-80): 272 % of control | T/C [11]: 272 % of control

CCOC(=O)C(N)CSC(c1ccccc1)(c1ccccc1)c1ccccc1 (stereo unspecified)
T/C (dose: 9.6 mg/kg/injection, schedule: Q04DX003 (ip), vehicle: saline): 95 % of control | T/C (dose: 14.0 mg/kg/injection, schedule: Q04DX003 (ip), vehicle: saline): 100 % of control | T/C (dose: 33.0 mg/kg/injection, schedule: Q04DX003 (ip), vehicle: saline): 122 % of control | T/C (dose: 50.0 mg/kg/injection, schedule: Q04DX003 (ip), vehicle: saline): 155 % of control | T/C [1]: 175 % of control | T/C (dose: 132.0 mg/kg/injection, schedule: Q04DX003 (ip), vehicle: saline): 181 % of control | T/C [2]: 181 % of control and 215 % of control | T/C (dose: 300.0 mg/kg/injection, schedule: Q04DX003 (ip), vehicle: saline): 163 % of control

CCOc1nc(=O)n(CC(=O)c2ccc(Cl)s2)cc1F
T/C [9]: 114 % of control | T/C [10]: 103 % of control | T/C [12]: 110 % of control | T/C [13]: 99 % of control | T/C [11]: 111 % of control | T/C [14]: 87 % of control | T/C [15]: 104 % of control

CCn1cnc(-c2ccccc2)c1-c1ccccc1
T/C (dose: 12.5 mg/kg/injection, schedule: Q01DX009 (ip), vehicle: saline with Tween-80): 100 % of control | T/C [8]: 104 % of control | T/C [9]: 100 % of control

O=C(CCC[N+](=O)[O-])c1ccccc1
T/C (dose: 50.0 mg/kg/injection, schedule: Q01DX005 (ip), vehicle: saline with Tween-80): 113 % of control | T/C (dose: 100.0 mg/kg/injection, schedule: Q01DX005 (ip), vehicle: saline with Tween-80): 113 % of control | T/C (dose: 200.0 mg/kg/injection, schedule: Q01DX005 (ip), vehicle: saline with Tween-80): 99 % of control

CS(=O)(=O)OCCN(CCOS(C)(=O)=O)c1ccc(/C=N/Nc2ncnc3nc[nH]c23)cc1
T/C (dose: 3.13 mg/kg/injection, schedule: Q04DX003 (ip), vehicle: saline with Tween-80): 120 % of control | T/C (dose: 66.0 mg/kg/injection, schedule: Q04DX003 (ip), vehicle: saline with Tween-80): 156 % of control | T/C [12]: 168 % of control and 182 % of control | T/C (dose: 150.0 mg/kg/injection, schedule: Q04DX003 (ip), vehicle: saline with Tween-80): 165 % of control | T/C [11]: 159 % of control

CCC(=O)c1ccc(OCC(O)CN2CCN(c3ccccc3OC)CC2)cc1 (stereo unspecified)
T/C [12]: 104 % of control | T/C [11]: 104 % of control | T/C [15]: 119 % of control

O=C(c1ccc(C(=O)N2CC2)cc1)N1CC1
T/C [7]: 95 % of control | T/C (dose: 20.0 mg/kg/injection, schedule: Q01DX009 (ip), vehicle: saline with Tween-80): 109 % of control

N#CC(Nc1ccccc1C(N)=O)c1ccccc1 (stereo unspecified)
T/C [1]: 109 % of control | T/C [2]: 104 % of control | T/C [3]: 95 % of control

COc1cccc(/C=N\NC(=O)C(C)SC(C)C(=O)N/N=C/c2cccc(OC)c2)c1 (stereo unspecified)
T/C [10]: 100 % of control | T/C [13]: 104 % of control | T/C [14]: 104 % of control

O=C(O)c1c(Cl)c(Cl)c(Cl)c(Cl)c1C(=O)O.O=C(O)c1c(Cl)c(Cl)c(Cl)c(Cl)c1C(=O)O.[Pt]
T/C (dose: 25.0 mg/kg/injection, schedule: Q04DX003 (ip), vehicle: saline sonified): 115 % of control | T/C (dose: 50.0 mg/kg/injection, schedule: Q04DX003 (ip), vehicle: saline sonified): 120 % of control

C[C@H]1CCC/C=C/[C@@H]2C[C@H](O)C[C@H]2[C@H](O)/C=C/C(=O)O1
T/C (dose: 2.5 mg/kg/injection, schedule: Q01DX009 (ip), vehicle: Klucel (hydroxypropylcellulose) (HPC)): 110 % of control | T/C (dose: 4.0 mg/kg/injection, schedule: Q01DX010 (ip), vehicle: other): 90 % of control | T/C (dose: 5.0 mg/kg/injection, schedule: Q01DX009 (ip), vehicle: Klucel (hydroxypropylcellulose) (HPC)): 106 % of control | T/C (dose: 8.0 mg/kg/injection, schedule: Q01DX010 (ip), vehicle: other): 90 % of control | T/C (dose: 10.0 mg/kg/injection, schedule: Q01DX009 (ip), vehicle: Klucel (hydroxypropylcellulose) (HPC)): 94 % of control | T/C (dose: 25.0 mg/kg/injection, schedule: Q01DX009 (ip), vehicle: Klucel (hydroxypropylcellulose) (HPC)): 100 % of control | T/C (dose: 50.0 mg/kg/injection, schedule: Q01DX009 (ip), vehicle: Klucel (hydroxypropylcellulose) (HPC)): 100 % of control | T/C (dose: 50.0 mg/kg/injection, schedule: Q04DX003 (ip), vehicle: Klucel (hydroxypropylcellulose) (HPC)): 104 % of control | T/C (dose: 100.0 mg/kg/injection, schedule: Q01DX009 (ip), vehicle: Klucel (hydroxypropylcellulose) (HPC)): 90 % of control | T/C [4]: 109 % of control
